Reference: ChEMBL document CHEMBL5370550, “Structure-guided optimization of adenosine mimetics as selective and potent inhibitors of coronavirus nsp14 N7-methyltransferases” (Eur J Med Chem, 2023)
Calls of active or inactive are those of the source. The calls are words filed in the database; no cut-off is given here.

Columns and labels:
[1] = target: T1, mRNA cap guanine-N(7) methyltransferase (Homo sapiens, UniProt O43148); details: dose 5.0 µM, time 30.0 min
[2] = target: Nonstructural protein 5 (Dengue virus) (UniProt V5TFZ2); details: dengue virus type 3; dose 5.0 µM, time 30.0 min
[3] = target: Replicase polyprotein 1ab (Severe acute respiratory syndrome coronavirus 2) (UniProt P0DTD1); details: dose 5.0 µM, time 30.0 min, values are per cent of control
[4] = target: Replicase polyprotein 1ab (Severe acute respiratory syndrome-related coronavirus) (UniProt P0C6X7); details: dose 5.0 µM, time 30.0 min
[5] = target: Replicase polyprotein 1ab (Severe acute respiratory syndrome coronavirus 2, UniProt P0DTD1)
Nonstructural protein 5 = Nonstructural protein 5 (Dengue virus, UniProt V5TFZ2); parameters: species or system dengue virus type 3
[6] = target: T1, mRNA cap guanine-N(7) methyltransferase
[7] = tested on: Severe acute respiratory syndrome coronavirus 2; details: time 30.0 min
[8] = target: Replicase polyprotein 1ab (Severe acute respiratory syndrome-related coronavirus, UniProt P0C6X7)
[9] = Cytotoxicity against Green monkey VeroE6/TMPRSS2 cells assessed as reduction in cell viability upto 10 uM by CellTiter Blue assay; format: toxicity, cell-based; details: chlorocebus sabaeus, veroe6/tmprss2, 10 µM
SARS-CoV-2 = experiment: Antiviral activity against SARS-CoV-2 B.1 infected in Green monkey VeroE6/TMPRSS2 cells assessed as viral replication inhibition at 10 uM incubated for 2 days by qRT-PCR analysis relative to control; format: functional
[10] = Severe acute respiratory syndrome coronavirus 2, time 2.0 day

T1 sequence (O43148 whole entry): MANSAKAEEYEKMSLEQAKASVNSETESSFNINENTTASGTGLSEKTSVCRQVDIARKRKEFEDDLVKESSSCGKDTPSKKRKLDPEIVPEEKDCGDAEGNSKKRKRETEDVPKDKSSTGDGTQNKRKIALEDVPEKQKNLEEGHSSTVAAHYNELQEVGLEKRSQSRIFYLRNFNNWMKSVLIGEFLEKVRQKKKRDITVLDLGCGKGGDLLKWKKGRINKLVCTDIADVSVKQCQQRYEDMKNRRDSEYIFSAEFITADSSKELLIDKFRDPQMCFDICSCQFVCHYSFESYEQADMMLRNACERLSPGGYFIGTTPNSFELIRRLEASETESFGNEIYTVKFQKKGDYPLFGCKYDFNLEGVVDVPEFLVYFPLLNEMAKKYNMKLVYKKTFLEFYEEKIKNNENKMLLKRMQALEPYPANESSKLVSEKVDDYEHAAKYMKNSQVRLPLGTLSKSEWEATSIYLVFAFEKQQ

| SMILES | inhibition [1] | inhibition [2] | residual activity [3] [%] | inhibition [4] [%] | IC50 [5] [nM] | IC50 (Nonstructural protein 5) | IC50 [6] [nM] | inhibition [7] | IC50 [8] [nM] | Activity [9] | Activity (SARS-CoV-2; [10]) | Activity (SARS-CoV-2; time 2 day) [%] |
| --- | --- | --- | --- | --- | --- | --- | --- | --- | --- | --- | --- | --- |
| Cc1cc(S(=O)(=O)NC[C@H]2O[C@@H](n3cnc4c(=O)[nH]cnc43)[C@H](O)[C@@H]2O)ccc1Cl | inactive | inactive | 87.6 | 71.8 | – | – | – | – | – | – | – | – |
| CNc1ncnc2c1ncn2[C@@H]1O[C@H](CNS(=O)(=O)c2ccc(C)c([N+](=O)[O-])c2)[C@@H](O)[C@H]1O | 66.4% | 76.6% | 38.7 | 66.4 | 2850 | – | – | – | – | – | – | – |
| CNc1ncnc2c1ncn2[C@@H]1O[C@H](CNS(=O)(=O)c2ccc(C)c(Cl)c2)[C@@H](O)[C@H]1O | 92% | inactive | 45.4 | 53.5 | 2180 | – | – | – | – | – | – | – |
| CCN(C[C@H]1O[C@@H](n2cnc3c(NC)ncnc32)[C@H](O)[C@@H]1O)S(=O)(=O)c1ccc(OC)c([N+](=O)[O-])c1 | 73.3% | 90% | 10.3 | 16.4 | 274 | – | – | – | – | – | – | – |
| CNc1ncnc2c1ncn2[C@@H]1O[C@H](CNS(=O)(=O)c2ccc(OC)c(C#N)c2)[C@@H](O)[C@H]1O | inactive | – | 25.4 | 45.1 | 468 | Not Active | 56200 | inactive | 3990 | – | – | – |
| CN(C[C@H]1O[C@@H](n2cc(C#Cc3ccccc3)c3c(N)ncnc32)[C@H](O)[C@@H]1O)S(=O)(=O)c1ccc(Br)c([N+](=O)[O-])c1 | 95.9% | 96.9% | 5 | 3.3 | 17.3 | – | – | – | – | Non-Toxic | inactive | – |
| Cc1ccc(S(=O)(=O)N(C)C[C@H]2O[C@@H](n3cc(C#Cc4ccccc4)c4c(N)ncnc43)[C@H](O)[C@@H]2O)cc1Cl | inactive | 94.8% | 7 | 2.4 | 25.6 | – | – | – | – | Non-Toxic | inactive | – |
| CCN(C[C@H]1O[C@@H](n2cnc3c(NC)ncnc32)[C@H](O)[C@@H]1O)S(=O)(=O)c1ccc(C)c([N+](=O)[O-])c1 | inactive | 97.1% | 10.9 | 20.1 | 187 | – | – | – | – | – | – | – |
| CCN(C[C@H]1O[C@@H](n2cnc3c(=O)[nH]cnc32)[C@H](O)[C@@H]1O)S(=O)(=O)c1ccc(OC)c([N+](=O)[O-])c1 | inactive | 86.4% | 56.4 | 69.8 | – | – | – | – | – | – | – | – |
| Cc1ccc(S(=O)(=O)N(C)C[C@H]2O[C@@H](n3cc(C#Cc4cnc5ccccc5c4)c4c(N)ncnc43)[C@H](O)[C@@H]2O)cc1[N+](=O)[O-] | 86.7% | 96% | 4.2 | 1.9 | 2.1 | – | – | – | – | Non-Toxic | – | 50 |
| CNc1ncnc2c1ncn2[C@@H]1O[C@H](CNS(=O)(=O)c2ccc(Br)c([N+](=O)[O-])c2)[C@@H](O)[C@H]1O | 57% | 78.1% | 33.8 | 54 | 3410 | – | – | – | – | – | – | – |
| CCN(C[C@H]1O[C@@H](n2cnc3c(NC)ncnc32)[C@H](O)[C@@H]1O)S(=O)(=O)c1ccc(OC)c(C#N)c1 | 55.9% | – | 4.2 | 4.3 | 62 | Not Active | 16100 | – | 51.7 | – | – | – |
| CNc1ncnc2c1ncn2[C@@H]1O[C@H](CNS(=O)(=O)c2ccc(OC)c([N+](=O)[O-])c2)[C@@H](O)[C@H]1O | inactive | inactive | 31.5 | 41.9 | 573 | – | – | – | – | – | – | – |
| COc1ccc(S(=O)(=O)NC[C@H]2O[C@@H](n3cnc4c(=O)[nH]cnc43)[C@H](O)[C@@H]2O)cc1C#N | inactive | inactive | 86 | 98.4 | – | – | – | – | – | – | – | – |
| COc1ccc(S(=O)(=O)N(C)C[C@H]2O[C@@H](n3cc(C#Cc4ccccc4)c4c(N)ncnc43)[C@H](O)[C@@H]2O)cc1[N+](=O)[O-] | inactive | 91.6% | 0 | 0.5 | 2.8 | – | – | – | – | Non-Toxic | inactive | – |
| CCN(C[C@H]1O[C@@H](n2cnc3c(N)ncnc32)[C@H](O)[C@@H]1O)S(=O)(=O)c1ccc(OC)c(C#N)c1 | 69.5% | inactive | – | 4.2 | – | – | – | – | – | – | – | – |
| CCN(C[C@H]1O[C@@H](n2cnc3c(NC)ncnc32)[C@H](O)[C@@H]1O)S(=O)(=O)c1ccc(C)c(Cl)c1 | 78% | inactive | 8.3 | 10.9 | 130 | – | – | – | – | – | – | – |
| Cc1ccc(S(=O)(=O)N(C)C[C@H]2O[C@@H](n3cc(C#Cc4ccccc4)c4c(N)ncnc43)[C@H](O)[C@@H]2O)cc1[N+](=O)[O-] | inactive | 93.3% | 1 | 1 | 9.5 | – | – | – | – | Non-Toxic | inactive | – |
| COc1ccc(S(=O)(=O)N(C)C[C@H]2O[C@@H](n3cc(C#Cc4ccccc4)c4c(N)ncnc43)[C@H](O)[C@@H]2O)cc1C#N | inactive | – | 2.4 | 1 | 1.2 | Not Active | 56500 | inactive | 0.8 | Non-Toxic | inactive | – |
| Cc1ccc(S(=O)(=O)N(C)C[C@H]2O[C@@H](n3cc(C#Cc4cnc5ccccc5c4)c4c(N)ncnc43)[C@H](O)[C@@H]2O)cc1Cl | 90.7% | 97.7% | 3.2 | 1.5 | 2.07 | – | – | – | – | Non-Toxic | – | 50 |
| CCN(C[C@H]1O[C@@H](n2cnc3c(=O)[nH]cnc32)[C@H](O)[C@@H]1O)S(=O)(=O)c1ccc(OC)c(C#N)c1 | 88.9% | 89.8% | 30.7 | 48.1 | 4000 | – | – | – | – | – | – | – |
| CN(C[C@H]1O[C@@H](n2cc(C#Cc3cnc4ccccc4c3)c3c(N)ncnc32)[C@H](O)[C@@H]1O)S(=O)(=O)c1ccc(Br)c([N+](=O)[O-])c1 | 52.3% | inactive | 5.4 | 5.5 | 3.5 | – | – | – | – | Non-Toxic | – | 50 |
| CCN(C[C@H]1O[C@@H](n2cnc3c(=O)[nH]cnc32)[C@H](O)[C@@H]1O)S(=O)(=O)c1ccc(Cl)c(C)c1 | inactive | inactive | 75.5 | 91 | – | – | – | – | – | – | – | – |
| COc1ccc(S(=O)(=O)N(C)C[C@H]2O[C@@H](n3cc(C#Cc4cnc5ccccc5c4)c4c(N)ncnc43)[C@H](O)[C@@H]2O)cc1C#N | 53% | – | 0 | 1.4 | 0.72 | Not Active | 165000 | inactive | 0.141 | Non-Toxic | – | 50 |
| COc1ccc(S(=O)(=O)NC[C@H]2O[C@@H](n3cnc4c(=O)[nH]cnc43)[C@H](O)[C@@H]2O)cc1[N+](=O)[O-] | inactive | inactive | 93.6 | 91.7 | – | – | – | – | – | – | – | – |
| COc1ccc(S(=O)(=O)N(C)C[C@H]2O[C@@H](n3cc(C#Cc4cnc5ccccc5c4)c4c(N)ncnc43)[C@H](O)[C@@H]2O)cc1[N+](=O)[O-] | 49.9% | inactive | 0 | 0.8 | 1.3 | – | – | – | – | Non-Toxic | – | 50 |
| CCN(C[C@H]1O[C@@H](n2cnc3c(NC)ncnc32)[C@H](O)[C@@H]1O)S(=O)(=O)c1ccc(Br)c([N+](=O)[O-])c1 | inactive | 98% | 15.2 | 29.5 | 383 | – | – | – | – | – | – | – |
